Tested on: NRF2
Experiment: NQO1 mRNA levels in skin cultured in the device and treated with an NRF2 activator
Assay type: cell-based
Settings: tissue treated on Day 0 versus Day 4 of culture in the 384-well device
Description: FIG. 8A is a perspective view of another embodiment of the present invention 341. […] The base has holes (not shown) which receive fixings 349. […] FIG. 8B is a schematic diagram which summarises an experiment in which skin cultured in the apparatus 341 was treated with a small molecule NRF2 activator (TBE-31) in order to evaluate the intracellular viability of the tissue. NRF2 transcriptionally regulates multiple genes that play both direct and indirect roles in activating intracellular anti-oxidative pathways.

C#C[C@]12C=C(C#N)C(=O)C=C1[C@@]1(C)C=C(C#N)C(=O)C(C)(C)[C@@H]1CC2 [TBE-31]
NRF2 response (NQO1 mRNA levels) in cultured skin: statistically the same

Source: patent publication US20190314812A1, “SKIN SAMPLE CULTURE AND MEMBRANE TEST DEVICE” (The University of Dundee, priority 2016, published 2019)
